Target: T1, RpoB (β subunit of RNA polymerase) (Mycolicibacterium smegmatis, UniProt P60281)
T1 construct: with RNA polymerase (multimeric enzyme)
T1 sequence (P60281 1-1169): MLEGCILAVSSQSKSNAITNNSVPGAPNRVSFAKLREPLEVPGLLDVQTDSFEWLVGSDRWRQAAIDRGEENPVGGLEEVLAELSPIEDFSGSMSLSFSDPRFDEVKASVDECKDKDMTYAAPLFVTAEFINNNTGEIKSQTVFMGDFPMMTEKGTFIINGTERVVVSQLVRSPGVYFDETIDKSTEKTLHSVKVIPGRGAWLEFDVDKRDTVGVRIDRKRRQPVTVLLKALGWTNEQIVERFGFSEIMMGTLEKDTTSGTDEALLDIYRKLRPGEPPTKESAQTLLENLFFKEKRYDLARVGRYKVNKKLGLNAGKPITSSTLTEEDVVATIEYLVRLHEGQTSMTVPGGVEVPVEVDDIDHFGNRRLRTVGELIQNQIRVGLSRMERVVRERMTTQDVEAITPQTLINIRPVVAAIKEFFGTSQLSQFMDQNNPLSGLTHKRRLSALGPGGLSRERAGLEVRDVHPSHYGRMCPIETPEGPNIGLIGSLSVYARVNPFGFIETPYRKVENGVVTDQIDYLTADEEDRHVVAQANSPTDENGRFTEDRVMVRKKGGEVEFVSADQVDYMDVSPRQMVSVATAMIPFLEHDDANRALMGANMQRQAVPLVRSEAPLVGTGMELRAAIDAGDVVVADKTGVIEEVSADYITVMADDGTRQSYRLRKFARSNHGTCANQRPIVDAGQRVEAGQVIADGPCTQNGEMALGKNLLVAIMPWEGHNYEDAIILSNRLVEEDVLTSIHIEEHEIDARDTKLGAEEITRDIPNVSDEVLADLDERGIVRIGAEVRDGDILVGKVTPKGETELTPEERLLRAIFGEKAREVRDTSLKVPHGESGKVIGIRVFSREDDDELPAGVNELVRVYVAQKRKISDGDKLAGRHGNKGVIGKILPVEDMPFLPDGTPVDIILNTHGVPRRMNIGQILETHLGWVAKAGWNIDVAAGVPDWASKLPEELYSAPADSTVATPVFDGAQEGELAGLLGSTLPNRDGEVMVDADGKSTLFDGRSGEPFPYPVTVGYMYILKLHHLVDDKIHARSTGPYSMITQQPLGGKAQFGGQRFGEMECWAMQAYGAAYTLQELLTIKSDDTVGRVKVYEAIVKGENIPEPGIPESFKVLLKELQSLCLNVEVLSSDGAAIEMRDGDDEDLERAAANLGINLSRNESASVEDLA
Experiment: MIC shift in rpoB knockdown strain ([…]; no shift in inhA knockdown); also reference inhibitor in the screens, IC50 not given
Type: cell-based

`CO[C@H]1/C=C/O[C@@]2(C)Oc3c(C)c(O)c4c(O)c(c(/C=N/N5CCN(C)CC5)c(O)c4c3C2=O)NC(=O)/C(C)=C\C=C\[C@H](C)[C@H](O)[C@@H](C)[C@@H](O)[C@@H](C)[C@H](OC(C)=O)[C@@H]1C` [rifampicin] was tested, and the “MIC shift in rpoB knockdown strain (8 to 0.5 μg/ml; no shift in inhA knockdown);” value was “modulation in MIC of rifampicin and isoniazid are due to the reduction in the respective target protein levels”.

Reference: paper PMC4527713, “An IPTG Inducible Conditional Expression System for Mycobacteria” (PLoS ONE, 2015)
